Values joined by “and” are separate entries in the source; they are usually repeats but may differ in a detail not shown here. Identical values can stand only once.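 Each compound was tested at five concentrations against cells in 96-well plates for 48 hours. Abbreviation: GI50, concentration required for 50% inhibition of growth. TGI: total growth inhibition.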
Columns and labels:
Experiment in all cases: NCI-60 cell line screen, 48 h
[1] = test system: NCI-H23 lung
[2] = test system: DU-145 prostate
[3] = test system: RPMI-8226 leukemia
[4] = test system: CAKI-1 renal
[5] = test system: OVCAR-8 ovarian
[6] = test system: SK-MEL-28 melanoma
[7] = test system: SF-268 CNS
[8] = test system: OVCAR-4 ovarian
[9] = test system: MDA-MB-231 breast
[10] = test system: A549 NSCLC

SMILES	TGI [1]	TGI [2] [µM]	TGI [3] [µM]	TGI [4] [µM]	TGI [5]	TGI [6]	TGI [7]	TGI [8] [µM]	TGI [9] [µM]	TGI [10]	GI50 [1] [µM]	GI50 [2] [µM]	GI50 [3] [µM]	GI50 [4] [µM]	GI50 [5] [µM]	GI50 [6] [µM]	GI50 [7] [µM]	GI50 [8] [µM]	GI50 [9] [µM]	GI50 [10] [µM]
Cc1ccc(C2=Nc3ccccc3SC(c3cccc([N+](=O)[O-])c3)C2)cc1 (stereo not given)	> 100 µM	> 100	5.19	> 100	71.2 µM	> 100 µM	> 100 µM	> 100	> 100	> 100 µM										
COc1ccc(C2[C@@H](Cl)C(=O)N2c2cc(OC)c(OC)c(OC)c2)cc1Cl (stereo not given in full)	> 100 µM	> 100	3.47	> 100	20.5 µM	87.3 µM	30.6 µM	> 100	26.1	> 100 µM	0.428	0.37	0.279	0.146	0.272	0.654	0.291	0.837	0.273	0.364
COc1ccc2cc(-c3c(-c4ccncc4)nc(-c4ccc(S(C)=O)cc4)n3C)ccc2c1 (stereo not given)	> 25 µM	> 25	> 25	> 25	> 25 µM	> 25 µM	> 25 µM	> 25	> 25	> 25 µM	> 25	> 25	17	19.4	17.9	24.2	> 25	20.6	> 25	> 25
COc1ccc(-c2cc(=O)c3c(OC)c(OC)c(OC)c(OC)c3o2)cc1	> 100 µM	> 100	> 100	> 100	> 100 µM	> 100 µM	> 100 µM	> 100	> 100	> 100 µM										
O=C(Nc1cccc(Nc2ncc(Br)c(NCCc3cnc[nH]3)n2)c1)N1CCCC1	21.3 µM	36.5	19.5	33.2	24.8 µM	28.6 µM	13.9 µM	31.1	29.2	> 67.1 µM	2.98	7.08	3.9	7.14	8.44	8.6	1.41	3.71	4.07	7.56
C[C@@H]1O[C@@H](O[C@H]2CC[C@@]3(C)[C@H](CCC4[C@@H]3C(O)C[C@]3(C)[C@@H](c5ccc(=O)oc5)CC[C@]43O)C2)[C@H](O)[C@H](O)[C@H]1O (stereo not given in full)	0.00672 µM	0.00516	0.0278	0.0154	0.00801 µM	0.0119 µM	0.00502 µM		0.0369	0.00441 µM	< 0.00325	0.00355	0.00792	0.0042	0.00415	0.0062	< 0.00325	< 0.00325	0.0112	< 0.00325
O=C(O)COc1c(Cl)cc(Cl)c2cccnc12	> 100 µM	> 100	> 100	> 100	> 100 µM	> 100 µM	> 100 µM	> 100	> 100	> 100 µM										
COc1ccc(OC)c(Cn2cc3c(c2)-c2oncc2CC3)c1	> 90.2 µM	> 64.3	> 27.9	> 100	> 100 µM	> 100 µM	> 100 µM	> 100	> 72	> 100 µM	3.8	3.74	3.39	2.73	5.27	5.09	6.22	5.74	5.02	4.42
CSC(=S)N/N=C(\C)c1cccc(C)n1	13.9 µM	12.8	1.51	23.6	28.1 µM	63.5 µM	46.7 µM	19.5	36.4	29.1 µM										
CCOc1nc(N)nc(C)c1N=Nc1ccc(Cl)cc1	> 100 µM	> 100	88.4	> 100	> 100 µM	> 100 µM	> 100 µM	> 100	> 100	> 100 µM										
Cc1cc(N(CCC#N)CCC#N)ccc1/C=C1N=C(/C=C\c2ccccc2)N(c2ccc(Cl)cc2)C\1=O	> 100 µM	> 100	> 100	> 100	> 100 µM	> 100 µM	> 100 µM	> 100	> 100	> 100 µM										
CCCCCn1sc(=O)n(Cc2ccc(CNC(=O)OCc3ccc4cccc(O)c4n3)cc2)c1=O	3.59 µM	3.09	11.2	2.17	9.89 µM	2.94 µM	4.14 µM	3.21	2.63	5.57 µM	1.67	1.6	1.56	0.935	1.85	1.6	1.82	1.67	1.32	2.12
C/C1=C\[C@@H](O)C(=O)/C=C/C=C\c2csc(n2)[C@@H](C)NC(=O)C[C@@]2(CC1)S(=O)SC(=O)[C@]2(C)O (stereo not given in full)	0.0275 µM and 0.0102 µM	0.114	> 100	0.0191	0.0624 µM and 0.0152 µM	0.0727 µM and 0.0168 µM	0.285 µM and 0.06 µM	0.0793	0.265	0.713 µM and 0.368 µM			> 100							
CCN1C(=O)N(CC)C2C1NN=c1s/c(=C\c3ccccc3Br)c(=O)n12 (stereo not given)	29.6 µM	> 38.7	8.76	26.3	> 73.5 µM	25 µM	> 59.5 µM	63	11.4	> 75.3 µM	0.0552	0.0362	0.0333	0.0242	0.0424	7.19	0.0612	0.069	0.0347	0.0408
